Test results: patent US9296734B2 (AMGEN INC., priority 2013, dated 2016)
Read-outs that look alike come from different tables or passages of the source.

Experiments:
Aβ in lumbar CSF = settings: healthy volunteers, oral dosing of 30 or 90 mg; cited from earlier work
[1] = higher compound dose given for three months; cited from earlier work
CSF Aβ40 = settings: healthy individuals, 36 h post-dose, cited from earlier work
[2] = test system: Aβ40 in conditioned medium of cells stably expressing Amyloid Precursor Protein (APP); assay: In vitro BACE cell-based assay (Aβ40 sandwich ELISA); settings: Homo sapiens, read-out: HEK cell assay IC50
In short: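 Secreted Aβ40 was quantified by sandwich ELISA (pAb40 capture, biotinylated 6E10 detection, Europium time-resolved fluorescence). IC50 derived from percent inhibition versus concentration.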

Cathepsin D (Cat D) = Cathepsin D (Cat D) (Homo sapiens (Human), UniProt P07339); assay: In vitro enzymatic Cathepsin D (Cat D) FRET assay; assay type: biochemical; settings: read-out: CatD IC50
In short: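 CHO-expressed recombinant Cat D cleaves a fluorophore/quencher FRET peptide (20 nM) in 0.05 M citrate pH 3.5, 5 mM CHAPS, 10% DMSO final, over 1 h. Tris addition neutralizes pH to stop the reaction; fluorescence read at excitation 500 nm, emission 580 nm.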

[3] = target: Beta Secretase enzyme (BACE) (Homo sapiens (Human), UniProt P56817); assay: In vitro enzymatic BACE FRET assay; assay type: biochemical; settings: read-out: BACE 1 FRET assay IC50
In short: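 Reactions ran in 0.05 M acetate pH 4.2 with 10% DMSO final and 100 uM genapol. They were started with 50 nM peptide FRET substrate (fluorophore and quencher flanking the BACE cleavage site) and incubated one hour. Tris addition raised the pH to neutral to stop the reaction before fluorescence reading.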

[4] = test system: Abeta 40 in CSF and brain; assay: In vivo inhibition of beta-secretase: Abeta 40 reduction in CSF and brain of the rat; settings: 10 mpk (unless otherwise noted), after 4 hrs
From the text: In Vivo Inhibition of Beta-Secretase
Several animal models, including mouse, rat, dog, and monkey, may be used to screen for inhibition of beta-secretase activity in vivo following administration of a test compound sample. Animals used in this invention can be wild type, transgenic, or gene knockout animals. […] A separate group of animals receive 2% hydroxypropyl methylcellulose, 1% Tween80 alone, containing no test compound, and serve as a vehicle-control group. At the end of the test period, animals are sacrificed and brain tissues, plasma or cerebrospinal fluid are collected. […] Homogenates are centrifuged at 355,000 g, 4° C. for 30 minutes. CSF or brain supernatants are then analyzed for the presence of A-beta peptide by specific sandwich ELISA assays based on ECL (Electrochemiluminescence) technology. For example, rat Abeta40 is measured using biotinylated-4G8 (Signet) as a capture antibody and Fab40 (an in-house antibody specific to the C-terminal of Abeta40) as a detection antibody.
Actual vehicles used: Oral: 2% HPMC, 1% Tween80, pH 2.2

[5] = Abeta 40, rat CSF, read-out: % reduction of rat CSF levels at 10 pmk
[6] = Abeta 40, rat brain, read-out: % reduction of rat brain levels at 10 mpk
[7] = HEK293, average IC50, HEK cells

Cathepsin D (Cat D), sequence (P07339 65-412, species assumed): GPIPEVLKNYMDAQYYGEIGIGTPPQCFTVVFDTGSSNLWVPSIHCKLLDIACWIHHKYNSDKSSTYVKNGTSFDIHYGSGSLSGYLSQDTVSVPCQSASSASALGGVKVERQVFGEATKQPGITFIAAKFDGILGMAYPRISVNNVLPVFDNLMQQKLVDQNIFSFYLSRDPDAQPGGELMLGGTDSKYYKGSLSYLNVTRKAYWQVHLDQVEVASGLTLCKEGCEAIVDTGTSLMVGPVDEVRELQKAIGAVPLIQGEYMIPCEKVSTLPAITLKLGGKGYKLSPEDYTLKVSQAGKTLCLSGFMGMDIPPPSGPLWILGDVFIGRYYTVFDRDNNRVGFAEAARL
Beta Secretase enzyme (BACE), sequence (P56817 46-501): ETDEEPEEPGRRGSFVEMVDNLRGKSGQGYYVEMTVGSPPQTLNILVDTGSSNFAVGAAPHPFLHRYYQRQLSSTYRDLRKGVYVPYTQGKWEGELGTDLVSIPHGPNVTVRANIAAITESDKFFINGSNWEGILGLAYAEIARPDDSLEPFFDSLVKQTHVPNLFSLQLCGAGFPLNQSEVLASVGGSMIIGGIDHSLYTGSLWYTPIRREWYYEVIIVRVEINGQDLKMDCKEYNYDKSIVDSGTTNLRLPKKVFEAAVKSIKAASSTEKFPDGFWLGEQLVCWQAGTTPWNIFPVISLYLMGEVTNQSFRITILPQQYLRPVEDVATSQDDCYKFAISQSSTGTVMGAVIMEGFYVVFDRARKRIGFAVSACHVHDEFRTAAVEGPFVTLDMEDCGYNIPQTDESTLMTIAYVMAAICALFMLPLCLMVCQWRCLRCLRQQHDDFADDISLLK

Row | Structure (SMILES) | inhibition in vivo at 10 mg/kg [4, 5] | inhibition in vivo at 10 mg/kg [4, 6] | IC50 [2, 7] | IC50 (Cathepsin D (Cat D); average IC50) | IC50 ([3]; average IC50) | other results
1 | C[C@@]1(c2cc(-c3cncnc3)c(F)cc2F)CCSC(N)=N1 [LY2811376, (S)-4-(2,4-difluoro-5-pyrimidin-5-yl-phenyl)-4-methyl-5,6-dihydro-4H-[1,3]thiazin-2-ylamine] | – | – | – | – | – | Aβ reductions in lumbar CSF (Aβ in lumbar CSF): Prominent and long-lasting Aβ reductions in lumbar CSF
2 | C[C@@]1(c2cc(-c3cncnc3)c(F)cc2F)CCSC(N)=N1 [LY 2811376] | – | – | – | – | – | rat toxicology finding [1]: damaged the pigment epithelium of the rat's eye
3 | CN1C(=N)N[C@](C)(c2cc(NC(=O)c3ccc(F)cn3)ccc2F)CS1(=O)=O [MK-8931] | – | – | – | – | – | reduction of CSF Aβ40 concentrations (CSF Aβ40; single dose of 100 mg): 75%; reduction of CSF Aβ40 concentrations (CSF Aβ40; single dose of 550 mg): 92%
4 | CC#CCOc1cnc(C(=O)Nc2cc(F)c(F)c([C@]3(CF)C[C@@H](C(F)(F)F)OC(N)=N3)c2)cn1 [Example 155, N-(3-((4S,6S)-2-amino-4-(fluoromethyl)-6-(trifluoromethyl)-5,6-dihydro-4H-1,3-oxazin-4-yl)-4,5-difluorophenyl)-5-(but-2-yn-1-yloxy)pyrazine-2-carboxamide] | 26% | 11% | – | – | – | IC50 ([2]; HEK293, average IC50, HEK cell assay): 3.67 nM; IC50 (Cathepsin D (Cat D); average IC50, cathepsin D enzyme assay): > 400000 nM; IC50 ([3]; average IC50, BACE enzyme assay): 0.87 nM
5 | NC1=N[C@](CF)(c2cc(NC(=O)c3ccc(Cl)cn3)ccc2F)C[C@@H](C(F)(F)F)O1 [Example 3, N-(3-((4S,6S)-2-amino-4-(fluoromethyl)-6-(trifluoromethyl)-5,6-dihydro-4H-1,3-oxazin-4-yl)-4-fluorophenyl)-5-chloropicolinamide] | 72% | 58% | 32 nM | > 400000 nM | 18 nM | –
6 | C[C@@]1(c2nc(NC(=O)c3ccc(C#N)cn3)ccc2F)C[C@@H](C(F)(F)F)OC(N)=N1 [Example 79, N-(6-((4S,6S)-2-amino-4-methyl-6-(trifluoromethyl)-5,6-dihydro-4H-1,3-oxazin-4-yl)-5-fluoropyridin-2-yl)-5-cyanopicolinamide] | 83% | 79% | 11.5 nM | > 400000 nM | 30.4 nM | –
7 | N#Cc1cnc(C(=O)Nc2ccc(F)c([C@]3(CF)C[C@@H](C(F)(F)F)OC(N)=N3)c2)c(Cl)c1 [Example 32, N-(3-((4S,6S)-2-amino-4-(fluoromethyl)-6-(trifluoromethyl)-5,6-dihydro-4H-1,3-oxazin-4-yl)-4-fluorophenyl)-3-chloro-5-cyano-2-pyridinecarboxamide] | 21% | -3% | 54.4 nM | > 400000 nM | 28.5 nM | –
